Read-outs that look alike come from different tables or passages of the source.
Tests used:
NRAS Q61R = NRAS Q61R (Homo sapiens, UniProt P01111+P62937, Q61R); assay: Disruption of BRAF RBD interaction with Ras (FRET / MOA assay, with Cyclophilin A); format: biochemical; settings: NRAS Q61R; read-out: NRAS Q61R FRET data IC50
From the text: (§1) Disruption of B-Raf Ras-Binding Domain (BRAF^RBD) Interaction with K-Ras by Compounds of the Invention (Also Called a FRET Assay or an MOA Assay)
(§2) Note—The following protocol describes a procedure for monitoring disruption of K-Ras G12C (GMP-PNP) binding to BRAF^RBD by a compound of the invention. This protocol may also be executed substituting other Ras proteins or nucleotides.
(§3) The purpose of this biochemical assay was to measure the ability of test compounds to facilitate ternary complex formation between a nucleotide-loaded K-Ras isoform and Cyclophilin A; the resulting ternary complex disrupts binding to a BRAF^RBD construct, inhibiting K-Ras signaling through a RAF effector. Data is reported as IC50 values.
(§4) In assay buffer containing 25 mM HEPES pH 7.3, 0.002% Tween20, 0.1% BSA, 100 mM NaCl and 5 mM MgCl2, tagless Cyclophilin A, His6-K-Ras-GMPPNP, and GST-BRAF^RBD were combined in a 384-well assay plate at final concentrations of 25 μM, 12.5 nM and 50 nM, respectively. Compound was present in plate wells as a 10-point 3-fold dilution series starting at a final concentration of 30 μM. After incubation at 25° C. for 3 hours, a mixture of Anti-His Eu-W1024 and anti-GST allophycocyanin was then added to assay sample wells at final concentrations of 10 nM and 50 nM, respectively, and the reaction incubated for an additional 1.5 hours. […] Compounds that facilitate disruption of a K-Ras:RAF complex were identified as those eliciting a decrease in the TR-FRET ratio relative to DMSO control wells.
as §3, with “BRAF^RBDD” for “BRAF^RBD”

NRAS Q61K = NRAS Q61K (Homo sapiens, UniProt P01111+P62937, Q61K); assay: as above; format: biochemical; settings: NRAS Q61K; read-out: NRAS Q61K FRET data IC50
From the text: as §1, §2, §3, §4
as §3, with “BRAF^RBDD” for “BRAF^RBD”

NCI-H358 (K-Ras G12C) = assay: CellTiter-Glo cell viability assay, 5-day treatment; format: cell-based; settings: Homo sapiens, NCI-H358, 120 h, 5-day treatment; read-out: H358 Cell Viability assay data (K-Ras G12C, IC50)
Outline: (§5)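 Five-day compound treatment of plated cells; luminescent read after ~30 min at RT. Percent-of-DMSO data fit to a four-parameter logistic model.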

KRAS G12C = KRAS G12C (Homo sapiens, UniProt P01116+P62937, G12C); assay: Disruption of BRAF RBD interaction with Ras (FRET / MOA assay, with Cyclophilin A); format: biochemical
Outline: (§6)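 Compound-driven ternary complex formation between nucleotide-loaded K-Ras and Cyclophilin A was measured as loss of BRAF RBD binding. Compounds (10-point 3-fold series, top 30 μM final) were incubated 3 h at 25 °C, then anti-His Eu-W1024 (10 nM) and anti-GST allophycocyanin (50 nM) added for 1.5 h. IC50 was taken from the TR-FRET ratio decrease versus DMSO.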

KRAS G12V = KRAS G12V (Homo sapiens, UniProt P01116+P62937, G12V); assay: as above; format: biochemical
Outline: as §6

KRAS G13C = KRAS G13C (Homo sapiens, UniProt P01116+P62937, G13C); assay: as above; format: biochemical
Outline: as §6

NRAS G12C = NRAS G12C (Homo sapiens, UniProt P01111+P62937, G12C); assay: as above; format: biochemical
KRAS G13D = KRAS G13D (Homo sapiens, UniProt P01116+P62937, G13D); assay: as above; format: biochemical
Outline: as §6

KRAS WT = KRAS WT (Homo sapiens, UniProt P01116+P62937); assay: as above; format: biochemical
Outline: as §6

KRAS G12D = KRAS G12D (Homo sapiens, UniProt P01116+P62937, G12D); assay: as above; format: biochemical
Outline: as §6

KRAS G12S = KRAS G12S (Homo sapiens, UniProt P01116+P62937, G12S); assay: as above; format: biochemical
Outline: as §6

Capan-1 (K-Ras G12V) = assay: CellTiter-Glo cell viability assay, 5-day treatment; format: cell-based; settings: Homo sapiens, CAPAN-1, 120 h, 5-day treatment; read-out: Capan-1 Cell Viability assay data (K-Ras G12V, IC50)
Outline: as §5

[1] = read-out: KRAS G12C FRET data, IC50
[2] = KRAS G12V, read-out: KRAS G12V FRET data IC50
[3] = read-out: KRAS G13C FRET data, IC50
[4] = NRAS G12C, read-out: NRAS G12C FRET data IC50
[5] = KRAS G13D, read-out: KRAS G13D FRET data IC50
[6] = KRAS WT, read-out: KRAS WT FRET data IC50
[7] = read-out: KRAS G12D FRET data, IC50
[8] = read-out: KRAS G12S FRET data, IC50

Sequence of NRAS G12C (P01111 whole entry G12C): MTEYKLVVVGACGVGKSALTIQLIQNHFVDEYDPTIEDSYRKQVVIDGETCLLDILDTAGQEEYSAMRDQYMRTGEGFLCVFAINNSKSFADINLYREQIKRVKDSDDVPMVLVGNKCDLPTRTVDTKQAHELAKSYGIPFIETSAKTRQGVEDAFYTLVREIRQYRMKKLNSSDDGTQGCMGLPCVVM
Sequence of NRAS G12C (P62937 whole entry): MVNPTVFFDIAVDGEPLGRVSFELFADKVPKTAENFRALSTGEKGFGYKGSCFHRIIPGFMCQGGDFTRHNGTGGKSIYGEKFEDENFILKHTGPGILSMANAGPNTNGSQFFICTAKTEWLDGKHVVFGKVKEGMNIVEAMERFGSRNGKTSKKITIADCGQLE
Sequence of KRAS G12S (P01116 1-169 isoform P01116-2 G12S limits assumed): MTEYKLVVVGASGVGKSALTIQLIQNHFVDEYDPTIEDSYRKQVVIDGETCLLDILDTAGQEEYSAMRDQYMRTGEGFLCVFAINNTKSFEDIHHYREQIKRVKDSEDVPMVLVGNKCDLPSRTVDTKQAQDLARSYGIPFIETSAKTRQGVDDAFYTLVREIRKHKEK
Sequence of KRAS G12S (P62937 whole entry): as the sequence (P62937 whole entry) above
Sequence of KRAS G13C (P01116 1-169 isoform P01116-2 G13C): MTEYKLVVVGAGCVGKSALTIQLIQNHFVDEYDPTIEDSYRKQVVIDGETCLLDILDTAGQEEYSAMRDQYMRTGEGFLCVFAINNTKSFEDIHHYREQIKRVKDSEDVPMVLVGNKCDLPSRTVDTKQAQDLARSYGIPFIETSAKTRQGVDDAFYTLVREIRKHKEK
Sequence of KRAS G13C (P62937 whole entry): as the sequence (P62937 whole entry) above
Sequence of KRAS G12C (P01116 1-169 isoform P01116-2 G12C): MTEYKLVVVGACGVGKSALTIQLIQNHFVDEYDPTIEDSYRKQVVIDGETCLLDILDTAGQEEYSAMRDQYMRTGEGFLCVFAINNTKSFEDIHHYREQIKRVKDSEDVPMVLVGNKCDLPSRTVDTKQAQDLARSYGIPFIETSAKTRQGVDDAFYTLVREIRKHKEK
Sequence of KRAS G12C (P62937 whole entry): as the sequence (P62937 whole entry) above
Sequence of KRAS G12D (P01116 1-169 isoform P01116-2 G12D limits assumed): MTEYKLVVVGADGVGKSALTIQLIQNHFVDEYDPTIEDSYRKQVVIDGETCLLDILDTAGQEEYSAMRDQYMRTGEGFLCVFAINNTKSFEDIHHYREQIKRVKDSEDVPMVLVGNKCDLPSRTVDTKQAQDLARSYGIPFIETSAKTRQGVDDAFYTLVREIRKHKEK
Sequence of KRAS G12D (P62937 whole entry): as the sequence (P62937 whole entry) above
Sequence of KRAS G12V (P01116 1-169 isoform P01116-2 G12V limits assumed): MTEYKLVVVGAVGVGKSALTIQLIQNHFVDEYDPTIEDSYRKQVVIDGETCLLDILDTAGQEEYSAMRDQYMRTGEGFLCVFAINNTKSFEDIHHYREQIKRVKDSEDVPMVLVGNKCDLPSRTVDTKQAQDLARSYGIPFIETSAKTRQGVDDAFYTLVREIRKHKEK
Sequence of KRAS G12V (P62937 whole entry): as the sequence (P62937 whole entry) above
Sequence of KRAS WT (P01116 1-169 isoform P01116-2 limits assumed): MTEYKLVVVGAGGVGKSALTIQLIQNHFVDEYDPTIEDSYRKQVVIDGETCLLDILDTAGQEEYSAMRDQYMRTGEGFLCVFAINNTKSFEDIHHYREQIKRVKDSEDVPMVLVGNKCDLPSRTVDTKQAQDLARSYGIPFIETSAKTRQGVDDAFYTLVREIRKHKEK
Sequence of KRAS WT (P62937 whole entry): as the sequence (P62937 whole entry) above
Sequence of KRAS G13D (P01116 1-169 isoform P01116-2 G13D limits assumed): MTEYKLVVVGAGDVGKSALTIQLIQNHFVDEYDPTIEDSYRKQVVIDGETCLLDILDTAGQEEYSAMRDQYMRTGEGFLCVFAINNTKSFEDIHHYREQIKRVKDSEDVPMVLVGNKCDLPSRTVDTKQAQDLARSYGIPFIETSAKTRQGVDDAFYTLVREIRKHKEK
Sequence of KRAS G13D (P62937 whole entry): as the sequence (P62937 whole entry) above
Sequence of NRAS Q61R (P01111 whole entry Q61R, the tested form may be a part): as the sequence (P01111 whole entry G12C) above, with C12G, Q61R counted along it
Sequence of NRAS Q61R (P62937 whole entry, the tested form may be a part): as the sequence (P62937 whole entry) above
Sequence of NRAS Q61K (P01111 whole entry Q61K): as the sequence (P01111 whole entry G12C) above, with C12G, Q61K counted along it
Sequence of NRAS Q61K (P62937 whole entry): as the sequence (P62937 whole entry) above

SMILES | IC50 (NRAS Q61R) [nM] | IC50 (NCI-H358 (K-Ras G12C)) [nM] | IC50 (Capan-1 (K-Ras G12V)) [nM] | IC50 (KRAS G12C; [1]) [nM] | IC50 (KRAS G12V; [2]) [nM] | IC50 (KRAS G13C; [3]) [nM] | IC50 (NRAS G12C; [4]) [nM] | IC50 (KRAS G13D; [5]) [nM] | IC50 (KRAS WT; [6]) [nM] | IC50 (KRAS G12D; [7]) [nM] | IC50 (KRAS G12S; [8]) [nM] | further results
CCC[C@H]1CCN1C(=O)N[C@H]1Cc2nc(cs2)-c2ccc3c(c2)c(c(-c2cccnc2[C@H](C)OC)n3CC)CC(C)(C)COC(=O)[C@@H]2CCCN(N2)C1=O [Example A264] | 100 to 1000 | – | – | – | – | – | – | – | – | – | – | –
CCn1c(-c2cccnc2[C@H](C)OC)c2c3cc(ccc31)-c1csc(n1)C[C@H](NC(=O)[C@H](C(C)C)N(C)C(=O)N1CC(C(C)(C)O)C1)C(=O)N1CCC[C@H](N1)C(=O)OCC(C)(C)C2 (atropisomer, axis not shown) [Example A289] | – | < 10 | – | – | – | – | – | – | – | – | – | IC50 (NRAS Q61K): 10 to 100 nM
CCn1c(-c2cccnc2[C@H](C)OC)c2c3cc(ccc31)-c1csc(n1)C[C@H](NC(=O)[C@H](C(C)C)N(C)C(=O)N1CCO[C@H](C)C1)C(=O)N1CCC[C@H](N1)C(=O)OCC(C)(C)C2 [Example A310] | 10 to 100 | – | – | – | – | – | – | – | – | – | – | –
CCn1c(-c2cnccc2COC)c2c3cc(ccc31)-c1cc(O)cc(c1)C[C@H](NC(=O)[C@H](C(C)C)N(C)C(=O)[C@H]1CCN(C=O)C1)C(=O)N1CCC[C@H](N1)C(=O)OCC(C)(C)C2 [Example A17, (2S)—N-[(8S,14S)-22-ethyl-4-hydroxy-21-[4-(methoxymethyl)pyridin-3-yl]-18,18-dimethyl-9,15-dioxo-16-oxa-10,22,28-triazapentacyclo[18.5.2.1^2,6.1^10,14.0^23,27]nonacosa-1(26),2,4,6(29),20,23(27),24-heptaen-8-yl]-2-{1-[(3S)-1-formylpyrrolidin-3-yl]-N-methylformamido}-3-methylbutanamide] | – | 1000 to 10000 | 1000 to 10000 | – | – | – | – | – | – | – | – | IC50 (KRAS G12C; KRAS G12C FRET data, IC50): 10 to 100 nM; IC50 (KRAS G12V; KRAS G12V FRET data IC50, KRAS G12V): 100 to 1000 nM; IC50 (KRAS G13C; KRAS G13C FRET data, IC50): 100 to 1000 nM; IC50 (NRAS G12C; NRAS G12C FRET data IC50, NRAS G12C): 100 to 1000 nM; IC50 (KRAS G13D; KRAS G13D FRET data IC50, KRAS G13D): 100 to 1000 nM; IC50 (KRAS WT; KRAS WT FRET data IC50, KRAS WT): 100 to 1000 nM; IC50 (KRAS G12D; KRAS G12D FRET data, IC50): 1000 to 10000 nM; IC50 (KRAS G12S; KRAS G12S FRET data, IC50): 100 to 1000 nM
CCn1c(-c2cnccc2COC)c2c3cc(ccc31)-c1cc(O)cc(c1)C[C@H](NC(=O)[C@H](C(C)C)N(C)C(=O)[C@H]1CCN(C(=O)C(C)C)C1)C(=O)N1CCC[C@H](N1)C(=O)OCC(C)(C)C2 [Example A29] | – | 100 to 1000 | 1000 to 10000 | 100 to 1000 | 100 to 1000 | 1000 to 10000 | 100 to 1000 | 1000 to 10000 | 1000 to 10000 | > 10000 | 100 to 1000 | –
CCn1c(-c2cccnc2[C@H](C)OC)c2c3cc(ccc31)-c1cc(O)cc(c1)C[C@H](NC(=O)[C@H](C(C)C)N(C)C(=O)C1NCCC13CC3)C(=O)N1CCC[C@H](N1)C(=O)OCC(C)(C)C2 (stereo partly shown) [Example A228] | – | 100 to 1000 | 100 to 1000 | 10 to 100 | 100 to 1000 | 10 to 100 | 10 to 100 | 10 to 100 | 10 to 100 | 10 to 100 | 10 to 100 | –
